# Laboratory results from patent US20220401390A1, “TREATMENTS OF DIABETIC MACULAR EDEMA AND IMPAIRED VISUAL ACUITY” (KALVISTA PHARMACEUTICALS LIMITED, priority 2019, published 2022).
# Test system: subjects with ciDME who have had prior anti-VEGF treatment
# Test: Study 2: sham-controlled monthly intravitreal injections, BCVA (ETDRS) efficacy
# Assay type: in vivo, human
# Parameters: BCVA (letters): any loss from baseline, Diff. v. sham / BCVA: ≥5 letter loss from baseline, Diff. v. sham / BCVA: ≥10 letter loss from baseline, Diff. v. sham / BCVA: ≥15 letter loss from baseline, Diff. v. sham: unit not given here
# Conditions: for BCVA: ≥10 letter loss from baseline, Diff. v. sham / BCVA: ≥15 letter loss from baseline, Diff. v. sham / BCVA (letters): any loss from baseline, Diff. v. sham / BCVA: ≥5 letter loss from baseline, Diff. v. sham: week 16
# Source text: To investigate monthly dosing of intravitreal (IVT) injection of the compound of Formula A in subjects with ciDME who have had prior anti-VEGF treatment. In particular, to evaluate any effect on the efficacy in the treatment, prevention, or prevention of worsening of ciDME in subjects who have had prior anti-VEGF treatment.
# This study was a randomized, sham-controlled, double-masked, 3-arm study into efficacy, safety and tolerability of monthly intravitreal injections of the compound of Formula A as a monotherapy in adult subjects with ciDME. The subjects had all had prior anti-VEGF treatment.
# 129 adult subjects were chosen using the following inclusion criteria: • 1. Male or female adult subjects 18 years of age and older. • 2. Confirmed diagnosis of Type I or Type II diabetes mellitus (DM). Any of the following were sufficient: • a. Current regular use of insulin for the treatment of diabetes • b. Current regular use of oral anti-hyperglycemia agents for the treatment of diabetes • c. Documented diabetes by American Diabetes Association and/or World Health Organization (VVHO) criteria. • 3. Best Corrected Visual Acuity (BCVA), using Standard Early Treatment Diabetic Retinopathy Study (ETDRS) chart, of ≥19 letters (˜20/400) and ≤73 letters (˜20/40) in the study eye and ≥34 letters (˜20/200 or better) in the fellow eye at Screening and Day 1. • 4. Presence of ciDME in the study eye defined as Heidelberg Spectralis Optical Coherence Tomography (SD-OCT) CST ≥305 μm in women and ≥320 μm in men in the study eye (as assessed at Screening by the Investigator and Central Image Reading Center (CIRC) and on Day 1 by the Investigator). • 5. Subjects' first anti-VEGF injection in the study eye occurred 36 months prior to Day 1. • 6. Subjects received at least 3 anti-VEGF injections in the study eye within a 6-month period within the 36 months prior to Day 1. • 7. Subject's' last anti-VEGF injection in the study eye was 8 weeks prior to Day 1. • 8. Subjects, who in the view of the Investigator, were able to defer treatment in the study eye for at least 6 months following Day 1. • 9. […] Provide signed informed consent and were willing and capable of complying with clinic visits and study procedures.
# The 129 eligible subjects were randomized approximately 1:1:1 into three arms: • 1. Arm 1, N=44: • Received injections of 3 μg/eye (100 μL injection volume at a concentration of 30 μg/mL) of the compound of formula A; • 2. Arm 2, N=41: • Received injections of 6 μg/eye (100 μL injection volume at a concentration of 60 μg/mL) of the compound of formula A; and • 3. Arm 3, N=44: • Received a sham procedure; during a 12-week, double-masked treatment period (a total of 4 doses given at approximately monthly intervals).
# Subjects visited the study clinic on Day 1 and Weeks 4, 8, and 12 during the Treatment Phase for study drug administration or sham procedure, safety, and ophthalmic assessments.
# The ophthalmic assessments were carried out in approximately the following order at the subjects' visits to the study clinic on Day 1, and Weeks 4, 8 and 12: • BCVA (must be performed prior to all other ophthalmic procedures) • Slit lamp biomicroscopy • Pre-Injection IOP/IOP at visits with no study drug administration (must be done prior to dilation) • Dilated indirect ophthalmoscopy • Fundus photography • SD-OCT • Intravitreal injection • Post-Injection IOP
# All subjects visited the clinic at Weeks 16, 20, and 24 after the last study drug administration or sham procedure for safety and ophthalmic assessments. The visit window for Weeks 16, 20, and 24 is ±7 days.
# The assessment measured change from baseline in BCVA letter count in the study eye at Week 16. Change from baseline in BCVA letter count is calculated as Week 16 BCVA letter count minus Day 1 BCVA letter count such that a negative difference indicates a worsening in vision. […]
structure (smiles),measurement,setting,value
"CCOc1ccc(C[C@@H](NC(=O)c2ccccc2)C(=O)N[C@@H](Cc2ccccc2)C(=O)NCc2ccc(CN)cc2)cc1 [compound of Formula A, N—[(R)-1-[(S)-1-(4-Aminomethyl-benzylcarbamoyl)-2-phenyl-ethylcarbamoyl]-2-(4-ethoxy-phenyl)-ethyl]-benzamide]","BCVA improvement (letters), change versus sham, mean","3 μg, 4 weeks, positive value is improvement",0.6 letters
same,"BCVA improvement (letters), change versus sham, mean","3 μg, 8 weeks, positive value is improvement",1.2 letters
same,"BCVA improvement (letters), change versus sham, mean","3 μg, 12 weeks, positive value is improvement",3.8 letters
same,"BCVA improvement (letters), change versus sham, mean","3 μg, 16 weeks, positive value is improvement",1.5 letters
same,"BCVA improvement (letters), change versus sham, mean","3 μg, 20 weeks, positive value is improvement",−1.2 letters
same,"BCVA improvement (letters), change versus sham, mean","3 μg, 24 weeks, positive value is improvement",−0.7 letters
same,"BCVA (letters): any loss from baseline, (%)","3 μg, week 16, n = 44",(50.0) %
same,"BCVA: ≥5 letter loss from baseline, (%)","3 μg, week 16, n = 44",(25.0) %
same,"BCVA: ≥10 letter loss from baseline, (%)","3 μg, week 16, n = 44",(9.1) %
same,"BCVA: ≥15 letter loss from baseline, (%)","3 μg, week 16, n = 44",(4.5) %
same,"BCVA: ≥10 letter loss from baseline, Diff. v. sham","3 μg, p-value 0.228",−11.4
same,"BCVA: ≥15 letter loss from baseline, Diff. v. sham","3 μg, p-value 0.4336",−6.8
same,"BCVA (letters): any loss from baseline, Diff. v. sham","3 μg, p-value 0.6695",−4.5
same,"BCVA: ≥5 letter loss from baseline, Diff. v. sham","3 μg, p-value 0.8083",−2.3
same,Improvement in BCVA (letters) score compared to sham after the treatment period (in words),"6 μg doses, through to the 24 week time period",maintained
same,"BCVA improvement (letters), change versus sham, mean","6 μg, all subjects, 4 weeks, positive value is improvement",0.9 letters
same,"BCVA improvement (letters), change versus sham, mean","6 μg, all subjects, 8 weeks, positive value is improvement",1.1 letters
same,"BCVA improvement (letters), change versus sham, mean","6 μg, all subjects, 12 weeks, positive value is improvement",2.9 letters
same,"BCVA improvement (letters), change versus sham, mean","6 μg, all subjects, 16 weeks, positive value is improvement",2.6 letters
same,"BCVA improvement (letters), change versus sham, mean","6 μg, all subjects, 20 weeks, positive value is improvement",2.0 letters
same,"BCVA improvement (letters), change versus sham, mean","6 μg, all subjects, 24 weeks, positive value is improvement",2.1 letters
same,"BCVA improvement (letters), change versus sham, mean","6 μg, early stage subjects (baseline BCVA >55 letters), 4 weeks",2.3 letters
same,"BCVA improvement (letters), change versus sham, mean","6 μg, early stage subjects (baseline BCVA >55 letters), 8 weeks",1.8 letters
same,"BCVA improvement (letters), change versus sham, mean","6 μg, early stage subjects (baseline BCVA >55 letters), 12 weeks",4.7 letters
same,"BCVA improvement (letters), change versus sham, mean","6 μg, early stage subjects (baseline BCVA >55 letters), 16 weeks",4.9 letters
same,"BCVA improvement (letters), change versus sham, mean","6 μg, early stage subjects (baseline BCVA >55 letters), 20 weeks",3.5 letters
same,"BCVA improvement (letters), change versus sham, mean","6 μg, early stage subjects (baseline BCVA >55 letters), 24 weeks",2.9 letters
same,"BCVA (letters): any loss from baseline, (%)","6 μg, week 16, n = 41",(32.5) %
same,"BCVA: ≥5 letter loss from baseline, (%)","6 μg, week 16, n = 41",(20.0) %
same,"BCVA: ≥10 letter loss from baseline, (%)","6 μg, week 16, n = 41",(5.0) %
same,"BCVA: ≥15 letter loss from baseline, (%)","6 μg, week 16, n = 41",(0) %
same,"BCVA (letters): any loss from baseline, Diff. v. sham","6 μg, p-value 0.0421",−22.0
same,"BCVA: ≥10 letter loss from baseline, Diff. v. sham","6 μg, p-value 0.0516",−15.5
same,"BCVA: ≥15 letter loss from baseline, Diff. v. sham","6 μg, p-value 0.0565",−11.4
same,"BCVA: ≥5 letter loss from baseline, Diff. v. sham","6 μg, p-value 0.4344",−7.3
same,Average improvement in BCVA score of early stage patients versus overall population (in words),"baseline BCVA greater than 55 letters, every measurement taken",consistently better average improvement in BCVA score than the overall average population score
same,Progression of DME or impaired visual acuity (in words),subjects that had previously had anti-VEGF treatment,slowing of the progression
